According to US9029345B2, “Selective inhibitors of translesion DNA replication” (Case Western Reserve University, priority 2005, dated 2015):

Key:
P-gp [1] = biological target: T1, P-gp (Homo sapiens, UniProt P08183); experiment: vinblastine-stimulated ATP hydrolysis by purified P-gp membranes (32Pi release); assay type: biochemical; parameters: endogenous in cells
Method: (§1) The in vitro activity of the triphosphate of 5-CHInd (5-CHITP) against P-gp was evaluated through its ability to inhibit vinblastine-stimulated ATP hydrolysis. These experiments used purified P-gp membranes expressed and isolated in Sf9 insect cells (BD Biosciences). ATP hydrolysis was quantified by the amount of ^32Pi release from γ^32P-ATP as a function of time. Reactions containing vinblastine were initiated by the addition of membranes and quenched in trichloroacetic acid and ammonium heptamolybdate. Heptamolybdophosphoric acid was separated by organic phase extraction and the presence of ^32Pi was quantified by liquid scintillation counting. […] The inhibition of 5-CHITP is selective for P-gp as the ATPase activity of control Sf9 membranes is not inhibited whereas sodium orthovanadate inhibits by about 50%.

control Sf9 membranes = experiment: ATPase activity of control Sf9 membranes; assay type: biochemical
Method: as §1

SKOV/VBL cells = experiment: potentiation of vinblastine in SKOV/VBL cells; assay type: cell-based; settings: 25 or 50 μg/ml 5-CHInd with 0.5 or 1 μg/ml vinblastine
Method: (§2) The potentiation of vinblstine by 5-CHInd was also assessed in MDR negative cesll (SKOV3) and MDR positive SKOV/VBL cells by administering various concentrations of vinblastine and 5-CHInd to the cells. FIG. 6 is a graph illustrating the cytoxic effect of 25 μg/ml of 5-CHInd (CH25), 50 μg/ml of 5-CHInd (CH50), 0.5 μg/ml of vinblastine (VinB 0.5), 1 μg/ml of vinblastine (VinB 1), 25 μg/ml of 5-CHInd in combination with 0.5 μg/ml of vinblastine (CH25+VinB 0.5), 25 μg/ml of 5-CHInd in combination with 1 μg/ml of vinblastine (CH25+VinB 1), 50 μg/ml of 5-CHInd in combination with 0.5 μg/ml of vinblastine (CH50+VinB 0.5), and 50 μg/ml of 5-CHInd in combination with 1 μg/ml of vinblastine (CH50+VinB 1) administered respectively to SKOV3 and SKOV/VBL cells.

P-gp [2] = biological target: T1, P-gp; experiment: intracellular [3H]-vinblastine accumulation and efflux in CEM-VBL cells; assay type: cell-based; parameters: endogenous in cells
Method: Intracellular drug accumulation studies use confluent CEM-C7 and CEM-VBL cells incubated with [^3H]-vinblastine (Moravek Biochemicals, Brea, Calif.) in the absence or presence of 5-CHInd. After attainment of equilibrium, cells are harvested and washed to remove any unbound [^3H]-vinblastine. Washed cells are then solubized and the retained radioactivity is quantified by liquid scintillation techniques. Measured radioactivity is normalized for protein content, and drug accumulation is expressed as a percentage of the vehicle control.
To measure the effect of 5-CHInd on the efflux of [^3H]-vinblastine, CEM-VBL cells are incubated with a sub-lethal dose of 5-CHInd or vehicle (DMSO) followed by the addition of a fixed concentration of [^3H]-vinblastine. After attainment of equilibrium, cells are washed and aliquots are analyzed for [^3H]-vinblastine accumulation at variable times (5 to 120 minutes). The efflux rate constant is obtained from a fit of the data to y=Ae^−kt where y is the amount of radioactivity at time t, A is maximal amplitude in accumulation, k is the efflux rate constant, and t is time.

P-glycoprotein [3] = biological target: T2, P-glycoprotein (Homo sapiens, UniProt P08183); experiment: NIMH Psychoactive Drug Screening Program (PDSP) screen; settings: first determined using PDSP
T2 construct: endogenous in cells; host or cells: CEM/VBL (CEM-VBL) leukemia cells
T2 sequence (P08183 whole entry): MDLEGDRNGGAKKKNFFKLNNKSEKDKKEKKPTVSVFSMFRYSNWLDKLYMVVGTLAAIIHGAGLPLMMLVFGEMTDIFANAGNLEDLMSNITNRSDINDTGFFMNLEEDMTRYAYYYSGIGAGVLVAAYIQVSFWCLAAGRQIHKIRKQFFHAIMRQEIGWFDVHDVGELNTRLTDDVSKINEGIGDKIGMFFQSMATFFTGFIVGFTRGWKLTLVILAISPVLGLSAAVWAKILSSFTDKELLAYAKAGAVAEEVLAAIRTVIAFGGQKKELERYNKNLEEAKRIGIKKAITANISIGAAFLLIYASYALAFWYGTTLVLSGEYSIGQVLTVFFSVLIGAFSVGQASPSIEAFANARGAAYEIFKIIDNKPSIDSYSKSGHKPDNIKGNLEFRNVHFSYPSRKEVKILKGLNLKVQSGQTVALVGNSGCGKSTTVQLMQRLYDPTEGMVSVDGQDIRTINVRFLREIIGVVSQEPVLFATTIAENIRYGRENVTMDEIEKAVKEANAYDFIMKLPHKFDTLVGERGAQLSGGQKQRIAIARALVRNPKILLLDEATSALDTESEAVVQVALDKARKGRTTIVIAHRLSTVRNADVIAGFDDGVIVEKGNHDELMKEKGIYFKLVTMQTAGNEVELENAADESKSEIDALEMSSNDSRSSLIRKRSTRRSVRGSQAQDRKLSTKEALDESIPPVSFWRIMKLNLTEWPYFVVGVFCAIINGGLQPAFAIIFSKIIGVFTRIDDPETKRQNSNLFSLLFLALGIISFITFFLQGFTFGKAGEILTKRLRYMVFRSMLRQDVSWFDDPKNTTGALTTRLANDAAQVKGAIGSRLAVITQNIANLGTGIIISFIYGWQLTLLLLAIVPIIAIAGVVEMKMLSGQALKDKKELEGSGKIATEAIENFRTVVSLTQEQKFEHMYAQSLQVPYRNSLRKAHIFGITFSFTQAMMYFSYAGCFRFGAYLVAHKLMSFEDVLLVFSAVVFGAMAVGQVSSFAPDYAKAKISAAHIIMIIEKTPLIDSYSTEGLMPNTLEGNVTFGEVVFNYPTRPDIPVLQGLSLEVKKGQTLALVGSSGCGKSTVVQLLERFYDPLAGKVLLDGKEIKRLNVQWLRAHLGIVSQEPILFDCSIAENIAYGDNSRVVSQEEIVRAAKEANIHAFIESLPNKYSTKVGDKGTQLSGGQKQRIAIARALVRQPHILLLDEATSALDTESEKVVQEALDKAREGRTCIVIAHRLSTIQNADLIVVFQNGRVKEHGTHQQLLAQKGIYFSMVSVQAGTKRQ
Excerpt: (§3) This was first determined using the NIMH Psychoactive Drug Screening Program (PDSP) which performs pharmacological and functional screens of novel compounds. This initial screening effort lead us to test the ability of 5-CHInd to block the export of Hoechst dye, a known substrate for P-gp. Control experiments verify that CEM cells not overexpressing p-glycoprotein show accumulation of the Hoechst dye as indicated by nuclear staining (FIG. 3A).

CEM-C7 cells = experiment: intracellular [3H]-vinblastine accumulation and efflux in CEM-C7 cells; assay type: cell-based; settings: devoid of P-gp
P-glycoprotein [4] = biological target: T2, P-glycoprotein; experiment: export of Hoechst dye from CEM/VBL cells overexpressing P-gp; assay type: cell-based; settings: sub-lethal concentration, compared to untreated CEM/VBL
Excerpt: as §3

P-gp [5] = biological target: T1, P-gp
CDKs = experiment: flow cytometry, cell cycle; assay type: cell-based; settings: preliminary flow cytometry data
SKOV3 cells = experiment: potentiation of vinblastine in SKOV3 cells; assay type: cell-based; settings: 25 or 50 μg/ml 5-CHInd with 0.5 or 1 μg/ml vinblastine
Method: as §2

P-gp [6] = biological target: T1, P-gp; experiment: control experiments: potentiation of other chemotherapeutic agents; settings: does not inhibit P-gp

T1 sequence (P08183 whole entry): as above

O=P(O)(O)OP(=O)(O)OP(=O)(O)OC[C@H]1O[C@@H](n2ccc3cc(C4CCCCC4)ccc32)C[C@@H]1O [5-CHITP]
inhibition of ATPase activity of P-gp (P-gp [1]; 50 μM): 52% | inhibition of ATPase activity of control Sf9 membranes (control Sf9 membranes; 5-CHITP): not inhibited

OC[C@H]1OC(n2ccc3cc(-c4ccccc4)ccc32)C[C@@H]1O (some centres unmarked) [5-PhInd]
cell death (leukemia cell lines; at the concentrations tested, data not shown): cause cell death

OC[C@H]1OC(n2ccc3cc(C4CCCCC4)ccc32)C[C@@H]1O (some centres unmarked) [5-CHInd, 5-cylclohexyl-1-indolyl-2-deoxyriboside]
potentiation of vinblastine (FIG. 6) (SKOV/VBL cells): potentiation of vinblastine | accumulation of [3H]-vinblastine (P-gp [2]): significant accumulation | rate constant for drug efflux (P-gp [2]; compared to vehicle-treated cells): decrease in rate constant for drug efflux | inhibition of p-glycoprotein activity (P-glycoprotein [3]): can inhibit the activity of p-glycoprotein | effect on accumulation or efflux of [3H]-vinblastine (CEM-C7 cells): no effect | accumulation of Hoechst dye (inhibition of P-gp export) (P-glycoprotein [4]): enhanced accumulation of the Hoechst dye | potentiation of the effects of 5-fluorouracil (P-gp [5]): does not potentiate | potentiation of the effects of cisplatin (P-gp [5]): does not potentiate | potentiation of the effects of doxorobucin (P-gp [5]): potentiates | potentiation of the effects of paclitaxel (P-gp [5]): potentiates | LD50 (leukemia cell lines): about 20 μg/mL | cytotoxic effect (flow cytometry, FIG. 2) (leukemia cell lines; leukemia cells, closely mimics staurosporine): rapid cytotoxic effect | cell cycle arrest (CDKs): induces cell cycle arrest | potentiation of vinblastine (FIG. 6) (SKOV3 cells): potentiation of vinblastine

CN[C@@H]1C[C@H]2O[C@@](C)([C@@H]1OC)n1c3ccccc3c3c4c(c5c6ccccc6n2c5c31)C(=O)NC4 [staurosporine]
action as potentiating agent (P-gp [6]): does not act as a potentiating agent

[Na+].[Na+].[Na+].[O]=[V]([O-])([O-])[O-] [sodium orthovanadate, reference compound]
inhibition of ATPase activity of P-gp (P-gp [1]; 1 μM, compared with 52% by 50 μM 5-CHITP): comparable | inhibition of ATPase activity of control Sf9 membranes (control Sf9 membranes; sodium orthovanadate): about 50%
